For assay [1], the system named is phospho-ERK in MIA PaCa2 or H358 cells. As to the kind of experiment: Phospho-ERK assay (AlphaLisa). The format is cell-based. Particulars: 1.5 h.
Assay [2] concerns the target T1, SHP2 (full length) (Homo sapiens, UniProt Q06124).
T1 construct: SHP2 (full length, diluted to 100 pM final concentration in reaction buffer, BPS bioscience, US); purchased BPS bioscience, US
T1 sequence (Q06124 1-593): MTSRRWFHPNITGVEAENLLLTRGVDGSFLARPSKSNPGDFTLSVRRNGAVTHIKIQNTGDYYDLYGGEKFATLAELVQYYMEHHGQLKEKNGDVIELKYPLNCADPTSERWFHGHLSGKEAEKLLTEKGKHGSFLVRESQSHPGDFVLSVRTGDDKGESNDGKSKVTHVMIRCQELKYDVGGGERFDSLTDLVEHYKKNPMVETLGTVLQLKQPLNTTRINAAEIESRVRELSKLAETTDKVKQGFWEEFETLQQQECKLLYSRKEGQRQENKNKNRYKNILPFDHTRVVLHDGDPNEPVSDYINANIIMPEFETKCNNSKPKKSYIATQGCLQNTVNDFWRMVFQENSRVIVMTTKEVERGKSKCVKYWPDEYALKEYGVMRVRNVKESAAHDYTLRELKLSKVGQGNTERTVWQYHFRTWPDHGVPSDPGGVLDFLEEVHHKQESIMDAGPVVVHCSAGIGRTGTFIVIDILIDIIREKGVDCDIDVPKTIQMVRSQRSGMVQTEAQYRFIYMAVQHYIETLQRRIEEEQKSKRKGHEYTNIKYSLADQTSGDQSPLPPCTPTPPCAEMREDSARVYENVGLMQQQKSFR
As to the kind of experiment: Phosphatase assay (PTPase assay) with DiFMUP substrate. Format: biochemical. Particulars: SHP2 activated with SHP2 activating peptide, DiFMUP 80 μM, 2 hours, fluorescence.

The mark [3] stands for this setting: MIA PaCa2 or H358 cells, compound incubated 1.5 hours, read-out: IC50 (p-ERK).

Like-named read-outs stand apart in the source and are kept apart here.

The IC50 is the concentration needed to halve the response being measured.

Regarding `C[C@@H]1OCC2(CCN(c3cnc(Sc4ccc5c(nc(OC6CCOC6)n5C)c4Cl)cn3)CC2)[C@@H]1N` (stereo partly drawn) [Example 130], the concentration for half-maximal inhibition (IC50) in assay [1] (setting [3]) is less than 45 nM; in assay [2] (read-out: IC50 (PTPase aS say)) it was less than 3 nM.
For `CC1(N)CCN(c2cnc(Sc3cccc(S(=O)(=O)F)c3Cl)cn2)CC1` [Example 7, 3-((5-(4-amino-4-methylpiperidin-1-yl)pyrazin-2-yl)thio)-2-chlorobenzenesulfonyl fluoride], the IC50 in assay [1] (read-out: IC50 (p-ERK, nM)) was 45 to 1500 nM; in assay [2] (IC50 (PTPase aS say, nM)), 3 to 100 nM.
As for `C[C@@H]1OCC2(CCN(c3cnc(Sc4ccc5nc(OC6CCOC6)[nH]c5c4Cl)cn3)CC2)[C@@H]1N` (stereo partly drawn) [Example 126, (3S,4S)-8-(5-((7-chloro-2-((tetrahydrofuran-3-yl)oxy)-1H-benzo[d]imidazol-6-yl)thio)pyrazin-2-yl)-3-methyl-2-oxa-8-azaspiro[4,5]decan-4-amine], the IC50 in assay [1] (setting [3]) lay in the range of 45 to 1500 nM; in assay [2] (read-out: IC50 (PTPase aS say)) it was 3 to 100 nM.
The matching figures for `C[C@@H]1OCC2(CCN(c3cnc(Sc4ccc5ncn(Cc6cccc(C#N)c6)c(=O)c5c4Cl)cn3)CC2)[C@@H]1N` [Example 31, 3-((6-((5-((3S,4S)-4-amino-3-methyl-2-oxa-8-azaspiro[4.5]decan-8-yl)pyrazin-2-yl)thio)-5-chloro-4-oxoquinazolin-3(4H)-yl)methyl)benzonitrile]: less than 45 nM and less than 3 nM.
The matching figures for `Cc1ccc(Cn2cnc3ccc(Sc4cnc(N5CCC6(CC5)CO[C@@H](C)[C@H]6N)cn4)c(Cl)c3c2=O)c(F)c1` [Example 69, 6-((5-((3S,4S)-4-amino-3-methyl-2-oxa-8-azaspiro[4.5]decan-8-yl)pyrazin-2-yl)thio)-5-chloro-3-(2-fluoro-4-methylbenzyl)quinazolin-4(3H)-one]: less than 45 nM and less than 3 nM.
Take `Cn1c(N2CCC(C)(N)CC2)nc(N)c(Sc2cccc(C(=O)O)c2Cl)c1=O` [Example 27, 3-((4-amino-2-(4-amino-4-methylpiperidin-1-yl)-1-methyl-6-oxo-1,6-dihydropyrimidin-5-yl)thio)-2-chlorobenzoic acid]: the IC50 was more than 1500 nM in assay [1] (setting [3]) and more than 100 nM in assay [2] (read-out: IC50 (PTPase aS say)).
Regarding `COCCOc1nc2ccc(Sc3cnc(N4CCC5(CC4)CO[C@@H](C)[C@H]5N)cn3)c(Cl)c2[nH]1` [Example 127], the IC50 in assay [1] (setting [3]) was less than 45 nM; in assay [2] (read-out: IC50 (PTPase aS say)), less than 3 nM.
The matching figures for `CC1(CN)CCN(c2cnc(Sc3ccc4nc[nH]c(=O)c4c3Cl)cn2)CC1` [Example 3, 6-((5-(4-(aminomethyl)-4-methylpiperidin-1-yl)pyrazin-2-yl)thio)-5-chloroquinazolin-4(3H)-one]: 45 to 1500 nM and 3 to 100 nM.
The matching figures for `COc1cccc(Cc2nc3ccc(Sc4cnc(N5CCC6(CC5)CO[C@@H](C)[C@H]6N)cn4)c(Cl)c3[nH]2)c1` [Example 135]: more than 1500 nM and more than 100 nM.
In the same order, the values of `COc1cccc(Cn2cnc3ccc(Sc4cnc(N5CCC6(CC5)CO[C@@H](C)[C@H]6N)cn4)c(Cl)c3c2=O)c1` [Example 36, 6-((5-((3S,4S)-4-amino-3-methyl-2-oxa-8-azaspiro[4.5]decan-8-yl)pyrazin-2-yl)thio)-5-chloro-3-(3-methoxybenzyl)quinazolin-4(3H)-one] are less than 45 nM and less than 3 nM.
Regarding `CC(C)(O)Cn1cnc2ccc(Sc3cnc(N4CCC5(CC4)Cc4scnc4[C@H]5N)cn3)c(Cl)c2c1=O` [Example 160, 6-[5-[(4S)-4-amino[4,6-dihydrocyclopenta[d]thiazole-5,4′-piperidin]-1′-yl]pyrazin-2-yl]sulfanyl-5-chloro-3-(2-hydroxy-2-methyl-propyl)quinazolin-4-one], the results for the IC50 in assay [1] (setting [3]) and in assay [2] (read-out: IC50 (PTPase aS say)) were less than 45 nM and less than 3 nM, respectively.
For the compound `C[C@@H]1OCC2(CCN(c3cnc(Sc4ccc5ncn(CC6CCCO6)c(=O)c5c4Cl)cn3)CC2)[C@@H]1N` (stereo partly drawn) [Example 62, 6-((5-((3S,4S)-4-amino-3-methyl-2-oxa-8-azaspiro[4.5]decan-8-yl)pyrazin-2-yl)thio)-5-chloro-3-((tetrahydrofuran-2-yl)methyl)quinazolin-4(3H)-one], the IC50 is less than 45 nM in assay [1] (setting [3]) and less than 3 nM in assay [2] (read-out: IC50 (PTPase aS say)).

The values above are taken from patent US12029739B2, “SHP2 inhibitor and use thereof” (KANAPH THERAPEUTICS INC., priority 2021, dated 2024).
